# Measurements as given in patent publication US8273404B2, “Extraction of solvents from drug containing polymer reservoirs” (Cordis Corporation, priority 2008, dated 2012).
# Columns and labels:
# [1] = format: physicochemical; conditions: 0.02 weight percent BHT per total basecoat solids
# Text: Referring to FIG. 113, there is illustrated in graphical format, the results of the same drug screening as described above with the solution applied to a cobalt-chromium, 18 mm stent. In this test, two sets of solution samples were utilized, one with sirolimus and polymer solution containing the antioxidant and one with sirolimus and polymer solution containing no antioxidant. The antioxidant utilized was 0.02 weight percent BHT per total basecoat solids. The test was utilized to determine the percent drug content change over a time period of 0 to 12 weeks under two conditions; namely, 40° C. with 75 percent relative humidity, and ambient conditions (25° C.).
# [2] = system: coronary arteries after balloon angioplasty; assay: IVUS substudy of the MVP restenosis trial (lumen, wall, EEM areas after balloon angioplasty); format: in vivo, human
# Procedure: The present invention concerns the IVUS substudy from the MVP restenosis trial. MVP was a double-blind placebo-controlled randomized clinical trial with four study groups. The protocol was approved by the Montreal Heart Institute institutional review board. The MVP study design, inclusion and exclusion criteria have been previously described (N Engl J Med 1997; 365-372). Briefly, patients referred for elective coronary angioplasty were evaluated at least 30 days prior to their scheduled procedure. Eligible patients were asked to provide written informed consent. Patients were eligible if they were scheduled to undergo standard balloon angioplasty on at least one native coronary artery and had at least one de novo target lesion with luminal narrowing of fifty percent or more by caliper measurements.
# Beginning thirty days prior to scheduled angioplasty, patients were randomly assigned to receive either probucol alone, multivitamins alone, the combination of probucol and multivitamins, or placebo. Probucol 500 mg or matched placebo was administered twice daily. The multivitamin complex, consisting of vitamin E 700 IU, vitamin C 500 mg and beta-carotene 30,000 IU, or matched placebo was also administered in one tablet twice daily. All patients received an extra dose of probucol 1000 mg and/or vitamin E 2000 IU and/or matched placebos twelve hours before angioplasty, according to randomization assignment. […] All patients received aspirin 325 mg daily started at least thirty days before procedure and continued for the study period. Balloon angioplasty was performed according to standard techniques. Intracoronary nitroglycerin (0.3 mg) was given for each target artery for both pre- and post-dilatation angiography and at follow-up. The sequence of contrast injections with the exact degree of angulation was recorded and used for every angiogram. Coronary arteriograms (pre-, post-procedure, and final follow-up) were analyzed together using the Coronary Measurement System (CMS), as previously reported. Patient follow-up included clinical evaluation, exercise treadmill testing, blood chemistry, pill count and drug level measurements, and dietary assessment and intervention. Patients were readmitted for follow-up coronary angiography at five to seven months. […]
# IVUS examinations were performed using 30 MHZ, 3.5 French mechanical (1800 rpm) ultrasound catheters (Boston Scientific, Natick, Mass.) and a dedicated imaging console (Hewlett Packard, Andover, Mass.) (Curr Opin Cardiol 1994; 9:627-633). […] IVUS imaging was monitored by an experienced cardiologist, but the angioplasty operator was blinded to ultrasound results to avoid altering standard balloon angioplasty practice. […] One angiographic view was recorded on videotape before beginning pullback of the IVUS catheter. […]
# LDL = assay: Ex vivo LDL peroxidation (diene conjugates after addition of copper ions) of MVP patients; set-up: species or system human; conditions: treatment for one month, preliminary results
# Text: Dietary intervention and smoking habits were similar in all groups. Probucol may simply be a more powerful antioxidant than the combination of vitamins. To this regard, preliminary results from the continuous spectrophotometric monitoring of diene conjugates in LDL after the addition of copper ions to the isolated lipoprotein ex vivo (Free Radic Res Commun 1989; 6:67-75) of MVP patients are noteworthy.
# [3] = system: coronary restenosis after angioplasty; assay: MultiVitamins and Probucol (MVP) randomized clinical trial, angiographic and clinical endpoints; format: in vivo, human
# Text: It was not possible to determine with angiography alone whether probucol acted via inhibition of tissue hyperplasia or improvement in vascular remodeling. […] In addition, the invention enables the skilled practitioner to use probucol in conjunction with other percutaneous coronary interventions such as stenting if it is deemed appropriate.
# Beginning thirty days prior to scheduled angioplasty, patients were randomly assigned to receive either probucol alone, multivitamins alone, the combination of probucol and multivitamins, or placebo. Probucol 500 mg or matched placebo was administered twice daily. The multivitamin complex, consisting of vitamin E 700 IU, vitamin C 500 mg and beta-carotene 30,000 IU, or matched placebo was also administered in one tablet twice daily. All patients received an extra dose of probucol 1000 mg and/or vitamin E 2000 IU and/or matched placebos twelve hours before angioplasty, according to randomization assignment. […] All patients received aspirin 325 mg daily started at least thirty days before procedure and continued for the study period. Balloon angioplasty was performed according to standard techniques. Intracoronary nitroglycerin (0.3 mg) was given for each target artery for both pre- and post-dilatation angiography and at follow-up. The sequence of contrast injections with the exact degree of angulation was recorded and used for every angiogram. Coronary arteriograms (pre-, post-procedure, and final follow-up) were analyzed together using the Coronary Measurement System (CMS), as previously reported. Patient follow-up included clinical evaluation, exercise treadmill testing, blood chemistry, pill count and drug level measurements, and dietary assessment and intervention. Patients were readmitted for follow-up coronary angiography at five to seven months. Patients in whom arteriography was performed for clinical reasons before the fifth month returned for repeat angiographic examination at five to seven months if no definite angiographic restenosis was present on at least one dilated site. During follow-up, patients with recurrence or exacerbation of anginal symptoms were treated with medical therapy or revascularization procedures (reangioplasty or Coronary Bypass Surgery) as clinically indicated. Patients with angiographic restenosis (lesion>50%. at follow-up) without clinical evidence of ischemia were not subjected to further interventional procedures.
# Probucol is one of the first pharmacological interventions shown to prevent coronary restenosis after balloon angioplasty. However, its mechanism of action and its efficacy as a vascular remodeling agent has never been studied. […]
SMILES,effect on sirolimus drug degradation on coated stent [1],"reduction in lumen loss compared to non-probucol treated patients ([2]; IVUS, patients receiving probucol) [mm^2]","Lumen area, Follow-up Post PTCA (change) ([2]; IVUS, per segment analysis) [mm^2]","reduction in lumen loss compared to the placebo group only ([2]; IVUS, probucol given alone) [mm^2]","Lumen area, Follow-up Post PTCA (change) ([2]; efficacy analysis in compliant patients) [mm^2]",protection against LDL oxidation (lag phase for LDL peroxidation) (LDL),patients in whom restenosis still occurred ([3]; probucol alone),reduction of angiographic lumen loss compared to placebo ([3]; probucol given alone),reduction of restenosis rate per segment compared to placebo ([3]; probucol given alone),reduction of the need for repeat angioplasty at 6 month compared to placebo ([3]; probucol given alone)
"Cc1cc(C(C)(C)C)c(O)c(C(C)(C)C)c1 [BHT, Butylated Hydroxytoluene]",lessens drug degradation at both 8 weeks and 12 weeks,,,,,,,,,
"CC(C)(Sc1cc(C(C)(C)C)c(O)c(C(C)(C)C)c1)Sc1cc(C(C)(C)C)c(O)c(C(C)(C)C)c1 [Probucol Alone, 4,4′-([1-methylethylidene)bis(thio)]bis-[2,6-bis(1,1-dimethylethyl)phenol]]",,0.79,−0.15 ± 1.70,1.06,−0.15 ± 1.70,significantly greater protection against LDL oxidation than vitamins alone or the combination of probucol and vitamins,over twenty percent,sixty-eight percent,forty-seven percent,fifty-eight percent
